In patent US6903130B1, “Pyrrolidineacetamide derivative alone or in combination for treatment of cns disorders” (UCB S.A., priority 1999, dated 2005):
Read-outs that look alike come from different tables or passages of the source.

Columns and labels:
[1] = system: rats with hyperactivity induced by a mixture of dexamphetamine-chlordiazepoxide; experiment: Y-maze test, DEX-CDP hyperactivity, levetiracetam and valproate alone or combined (Example 6); format: in vivo, rat; details: median (Q1-Q3)
Description: The purpose of the present experiment was to study the effects of levetiracetam administered alone or in combination with valproate on the hyperactivity induced in rats by a mixture of dexamphetamine-chlordiazepoxide (DEX-CDP) evaluated in a Y-shaped maze apparatus, a test recognized as a model for mania. Increased motor activity is a frequent symptom of manic disorders and, therefore, is often used as a model of mania in laboratory animals. Lithium, a medicine approved by the FDA in the prophylaxis and the treatment of bipolar disorders and mania, and valproate, indicated for the treatment of manic episodes associated with bipolar disorders, have been shown active in this model of mania (Vale A. L. & Ratcliffe F., Psychopharmacol. (1987), 91, 352-355; Cao B. J. & Peng N. A., Eur. J. Pharmacol. (1993), 237, 177-181).
Hyperactivity was induced in male Sprague Dawley rats weighing 210-290 g (n 13 or 15 per group) by a mixture of dexamphetamine-chlordiazepoxide as described by Vale A. L. (Vale A. L. & Ratcliffe F., Psychopharmacol. (1987), 91, 352-355). […]
Each rat was placed in the center of the Y-maze (with each arm 40 cm long and 15 cm wide with 35 cm walls) constructed in gray plexiglas. The number of visits into the arms was recorded over a 5 minutes period as an index of activity.
The results were expressed as median with the first and third quartile. […]

[2] = system: amygdala-kindled rats; experiment: Rotarod test in amygdala-kindled rats
Description: Levetiracetam and valproate, in a dose-volume of 5 ml/kg body weight, were administered intraperitoneally 60 and 30 minutes, respectively, before the induction of kindling or the measurement of rotarod performance. Levetiracetam ([…]) and sodium valproate (50, 100, 150, 200 and 300 mg/kg) were both dissolved in 0.9% NaCl to give solutions of pH 5.9 and 6.3, respectively. Control rats received an equivalent dose-volume of the appropriate vehicle.
The amygdala-kindled rats (n=8) were also tested on a rotating rod. The animals were pretreated with i.p. administrations of levetiracetam and valproate 60 and 30 minutes, respectively, before testing, Only animals that were unable to remain on the rod after three subsequent 1-minute attempts were considered as having an impaired performance. Results were analyzed as described in example 1.

[3] = system: amygdala-kindled rats; experiment: Protection against secondarily generalized motor seizures in amygdala-kindled rats; format: in vivo, rat; details: for ED50: Rattus norvegicus, ip, read-out: ED50, protection against secondarily generalized motor seizures
Description: The purpose of this study was to evaluate the pharmacodynamic interaction between valproate levetiracetam in preventing secondarily generalized motor seizures in amygdala-kindled rats, a model that has repeatedly been proposed to reflect complex partial seizures with secondarily generalization in man ([…]. & al., Exp. Neurol. […] McNamara J. O., Ann. of Neurol. (1984), 16 (suppl.), […]-[…]). In this model, focal electrical kindling of amygdala in rats induces the development of electrical seizure activity ([…] amygdala and behavioral seizures, generally evolving through facial clonus, head nodding, forelimb clonus, rearing and fully kindled seizures with rearing and falling accompanied by generalized clonic seizures (Racine R. J., Electroencephalogr. Clin. Neurophysiol. (1972), 32, 281-294). […] Neurol. […] Two days later, drugs were tested. The behavioral effect of stimulation was graded according to the score of Racine (Racine R. J., Electroencephalogr. Clin. Neurophysiol. (1972), 32, 281-294).

CC[C@@H](C(N)=O)N1CCCC1=O [Levetiracetam, (S)-(−)α-ethyl-2-oxo-1-pyrrolidineacetamide]
Number of arms visited ([1]; levetiracetam 17 mg/kg i.p. + DEX-CDP mixture): 46 (41-49) | impairment of rotarod performance (in words) ([2]; levetiracetam alone 108, 170 and 540 mg/kg i.p.): None of the three doses of levetiracetam tested (108, 170 and 540 mg/kg) impaired the performance | ED50 [3]: 307 mg/kg | Calculated proportion of animals protected ([3]; levetiracetam 17 mg/kg alone): 7% | Calculated proportion of animals protected ([3]; levetiracetam 54 mg/kg alone): 18% | Calculated proportion of animals protected ([3]; levetiracetam 108 mg/kg alone): 28.5%

CCCC(CCC)C(=O)[O-].[Na+] [Valproate, sodium valproate]
Number of arms visited ([1]; valproate 150 mg/kg i.p. + DEX-CDP mixture): 41 (18-49) | Impairment in the performance within the rotarod test ([2]; valproate 197 mg/kg + saline (treatment protecting 50% of the rats)): 46% | ED50 ([3]; compound alone, i.p., LOGIT-LOG DOSE regression): 197 mg/kg
